# Molecular target: T1, MGL (Rattus norvegicus, UniProt Q8R431)
# T1 construct: one g rat brain was homogenized
# T1 sequence (Q8R431 1-303): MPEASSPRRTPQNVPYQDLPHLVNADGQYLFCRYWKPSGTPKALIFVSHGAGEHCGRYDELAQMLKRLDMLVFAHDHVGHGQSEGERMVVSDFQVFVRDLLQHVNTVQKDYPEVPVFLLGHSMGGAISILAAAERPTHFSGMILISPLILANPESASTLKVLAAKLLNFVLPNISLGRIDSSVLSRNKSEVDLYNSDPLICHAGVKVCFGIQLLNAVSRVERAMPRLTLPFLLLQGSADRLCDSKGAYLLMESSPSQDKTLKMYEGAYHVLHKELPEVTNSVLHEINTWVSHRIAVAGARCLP
# Experiment: 2-AG Accumulation Assay (rat brain homogenate)
# Format: biochemical
# Settings: compound 1 μM, percent of vehicle 2-AG accumulation
row,Structure (SMILES),Rat Brain 2AG % VehCntrl (%) @1 μM [%]
1,O=C(c1ccc(CNc2cccc(Cl)c2)cc1)N1CC(N2CCN(C(=O)c3nccs3)CC2)C1 [Cpd 455],1013
2,"Cc1nc(-c2cccc(C(F)(F)F)c2)sc1C(=O)N1CC(N2CCN(C(=O)c3nccs3)CC2)C1 [Cpd 1407, 1-[1-({4-Methyl-2-[3-(trifluoromethyl)phenyl]-1,3-thiazol-5-yl}carbonyl)azetidin-3-yl]-4-(1,3-thiazol-2-ylcarbonyl)piperazine]",1287
3,O=C(c1ccc2c(-c3cccc(F)c3)c[nH]c2c1)N1CC(N2CCN(C(=O)c3nccs3)CC2)C1 [Cpd 1319],1276
4,"O=C(c1nccs1)N1CCN(C2CN(C(=O)c3sc4cc(C(F)(F)F)ccc4c3F)C2)CC1 [Cpd 895, 1-(1-{[3-Fluoro-6-(trifluoromethyl)-1-benzothiophen-2-yl]carbonyl}azetidin-3-yl)-4-(1,3-thiazol-2-ylcarbonyl)piperazine]",1207
5,"O=C(c1ccc2c(ccn2-c2cccc(C(F)(F)F)c2)c1)N1CC(N2CCN(C(=O)c3cscn3)CC2)C1 [Cpd 1408, 5-({3-[4-(1,3-Thiazol-4-ylcarbonyl)piperazin-1-yl]azetidin-1-yl}carbonyl)-1-[3-(trifluoromethyl)phenyl]-1H-indole]",1475
6,"Cc1cc(-c2cccc(C(F)(F)F)c2)ccc1C(=O)N1CC(N2CCN(C(=O)c3nccs3)CC2)C1 [Cpd 239, 1-(1-{[3-Methyl-3′-(trifluoromethyl)biphenyl-4-yl]carbonyl}azetidin-3-yl)-4-(1,3-thiazol-2-ylcarbonyl)piperazine]",1097
7,Cn1cc(-c2cccc(F)c2)c2ccc(C(=O)N3CC(N4CCN(C(=O)c5nccs5)CC4)C3)cc21 [Cpd 1142],1314
8,O=C(c1ccc2c(c1)CCN(Cc1cccc(C(F)(F)F)c1)C2)N1CC(N2CCN(C(=O)c3nccs3)CC2)C1 [Cpd 879],1027
9,"O=C(c1ccc2c(ccn2-c2cccc(C(F)(F)F)c2)c1)N1CC(N2CCN(C(=O)c3nccs3)CC2)C1 [Cpd 1356, 5-({3-[4-(1,3-Thiazol-2-ylcarbonyl)piperazin-1-yl]azetidin-1-yl}carbonyl)-1-[3-(trifluoromethyl)phenyl]-1H-indole]",1420
10,"COc1c(C(=O)N2CC(N3CCN(C(=O)c4nccs4)CC3)C2)sc2cc(C(F)(F)F)ccc12 [Cpd 649, 1-(1-{[3-Methoxy-6-(trifluoromethyl)-1-benzothiophen-2-yl]carbonyl}azetidin-3-yl)-4-(1,3-thiazol-2-ylcarbonyl)piperazine]",1017
11,O=C(c1ccc2c(c1)CCN(S(=O)(=O)c1ccc(C(F)(F)F)cc1)C2)N1CC(N2CCN(C(=O)c3nccs3)CC2)C1 [Cpd 928],1207
12,"O=C(c1nccs1)N1CCN(C2CN(C(=O)c3sc4cc(Br)ccc4c3Cl)C2)CC1 [Cpd 326, 1-{1-[(6-Bromo-3-chloro-1-benzothiophen-2-yl)carbonyl]azetidin-3-yl}-4-(1,3-thiazol-2-ylcarbonyl)piperazine]",1336
13,O=C(c1nn(-c2ccc(Cl)cc2Cl)c2c1CCC/C2=C\c1ccc(Cl)cc1)N1CC(N2CCN(C(=O)C(F)(F)F)CC2)C1 [Cpd 1020],135
14,O=C(c1ccc(-c2nc(-c3ccccc3Cl)cs2)cc1)N1CC(N2CCN(C(=O)c3nccs3)CC2)C1 [Cpd 1328],1086
15,"O=C(c1nccs1)N1CCN(C2CN(C(=O)c3sc4cc(C(F)(F)F)ccc4c3Cl)C2)CC1 [Cpd 324, 1-(1-{[3-Chloro-6-(trifluoromethyl)-1-benzothiophen-2-yl]carbonyl}azetidin-3-yl)-4-(1,3-thiazol-2-ylcarbonyl)piperazine]",1215
16,O=C(c1ccc(Cc2ccc(C(F)(F)F)cc2)cc1)N1CC(N2CCN(C(=O)c3nccs3)CC2)C1 [Cpd 985],1116
17,O=C(c1ccc(OCc2ccc(Cl)s2)cc1)N1CC(N2CCN(C(=O)c3nccs3)CC2)C1 [Cpd 962],1213
18,"O=C(c1ccc2c(-c3cccc(C(F)(F)F)c3)c[nH]c2c1)N1CC(N2CCN(C(=O)c3nccs3)CC2)C1 [Cpd 1341, 6-({3-[4-(1,3-Thiazol-2-ylcarbonyl)piperazin-1-yl]azetidin-1-yl}carbonyl)-3-[3-(trifluoromethyl)phenyl]-1H-indole]",1149
19,"O=C(c1ccc2c(ccn2-c2ccc(C(F)(F)F)cc2)c1)N1CC(N2CCN(C(=O)c3cscn3)CC2)C1 [Cpd 1359, 5-({3-[4-(1,3-Thiazol-4-ylcarbonyl)piperazin-1-yl]azetidin-1-yl}carbonyl)-1-[4-(trifluoromethyl)phenyl]-1H-indole]",1016
20,Cn1cc(-c2cccc(C(F)(F)F)c2)c2ccc(C(=O)N3CC(N4CCN(C(=O)c5nccs5)CC4)C3)cc21 [Cpd 1100],1133

# Same assay, conditions: compound 10 μM, percent of vehicle 2-AG accumulation
row,Structure (SMILES),Rat Brain 2AG % VehCntrl (%) @10 μM [%]
1,"O=C(c1ccccc1)N1CCN(C2CN(C(=O)c3ccc(NCc4ccc(F)c(C(F)(F)F)c4)cc3)C2)CC1 [Cpd 494, N-[4-Fluoro-3-(trifluoromethyl)benzyl]-4-({3-[4-(phenylcarbonyl)piperazin-1-yl]azetidin-1-yl}carbonyl)aniline]",1121
2,"N#CC=Cc1cccc(-c2ccc(C(=O)N3CC(N4CCN(C(=O)c5nccs5)CC4)C3)cc2)c1 [Cpd 223, 3-[4′-({3-[4-(1,3-Thiazol-2-ylcarbonyl)piperazin-1-yl]azetidin-1-yl}carbonyl)biphenyl-3-yl]prop-2-enenitrile]",1261
3,"O=C(c1ccc(-c2cccc(Cl)c2)cc1)N1CC(N2CCN(C(=O)c3nccs3)CC2)C1 [Cpd 162, 1-{1-[(3′-Chlorobiphenyl-4-yl)carbonyl]azetidin-3-yl}-4-(1,3-thiazol-2-ylcarbonyl)piperazine]",1099
4,"O=C(c1ccc(SCc2cccc(Cl)c2Cl)cc1)N1CC(N2CCN(C(=O)c3nccs3)CC2)C1 [Cpd 413, 1-[1-({4-[(2,3-Dichlorobenzyl)sulfanyl]phenyl}carbonyl)azetidin-3-yl]-4-(1,3-thiazol-2-ylcarbonyl)piperazine]",1693
5,O=C(c1ccc(SCc2ccc(Cl)cc2)cc1)N1CC(N2CCN(C(=O)c3nccs3)CC2)C1 [Cpd 415],1629
6,"O=C(c1ccc(OCc2cccc(Cl)c2Cl)c(F)c1)N1CC(N2CCN(C(=O)c3nccs3)CC2)C1 [Cpd 405, 1-[1-({4-[(2,3-Dichlorobenzyl)oxy]-3-fluorophenyl}carbonyl)azetidin-3-yl]-4-(1,3-thiazol-2-ylcarbonyl)piperazine]",1591
7,"Cc1cc(-c2cccc(C(F)(F)F)c2)ccc1C(=O)N1CC(N2CCN(C(=O)c3nccs3)CC2)C1 [Cpd 239, 1-(1-{[3-Methyl-3′-(trifluoromethyl)biphenyl-4-yl]carbonyl}azetidin-3-yl)-4-(1,3-thiazol-2-ylcarbonyl)piperazine]",1353
8,"O=C(c1ccc(SCc2ccc(Cl)c(Cl)c2)cc1)N1CC(N2CCN(C(=O)c3nccs3)CC2)C1 [Cpd 414, 1-[1-({4-[(3,4-Dichlorobenzyl)sulfanyl]phenyl}carbonyl)azetidin-3-yl]-4-(1,3-thiazol-2-ylcarbonyl)piperazine]",1608
9,"O=C(c1ccc(-c2ccc(Cl)c(Cl)c2)cc1)N1CC(N2CCN(C(=O)c3nccs3)CC2)C1 [Cpd 175, 1-{1-[(3′,4′-Dichlorobiphenyl-4-yl)carbonyl]azetidin-3-yl}-4-(1,3-thiazol-2-ylcarbonyl)piperazine]",1180
10,"O=C(c1cc2c(C(F)(F)F)cccc2s1)N1CC(N2CCN(C(=O)c3nccs3)CC2)C1 [Cpd 327, 1-(1,3-Thiazol-2-ylcarbonyl)-4-(1-{[4-(trifluoromethyl)-1-benzothiophen-2-yl]carbonyl}azetidin-3-yl)piperazine]",2005
11,"O=C(c1ccc(-c2cccc(C(F)(F)F)c2)cc1)N1CC(N2CCN(C(=O)c3cscn3)CC2)C1 [Cpd 229, 1-(1,3-Thiazol-4-ylcarbonyl)-4-(1-{[3′-(trifluoromethyl)biphenyl-4-yl]carbonyl}azetidin-3-yl)piperazine]",1304
12,"CC1(C)CCC(C)(C)c2cc(CCC(=O)N3CC(N4CCN(C(=O)c5nccs5)CC4)C3)ccc21 [Cpd 282, 1-{1-[3-(5,5,8,8-Tetramethyl-5,6,7,8-tetrahydronaphthalen-2-yl)propanoyl]azetidin-3-yl}-4-(1,3-thiazol-2-ylcarbonyl)piperazine]",1775
13,O=C(c1ccc(Oc2cccc(Cl)c2)c(F)c1)N1CC(N2CCN(C(=O)c3nccs3)CC2)C1 [Cpd 875],1285
14,"O=C(c1ccc(-c2ccc(F)c(Cl)c2)cc1)N1CC(N2CCN(C(=O)c3nccs3)CC2)C1 [Cpd 178, 1-{1-[(3′-Chloro-4′-fluorobiphenyl-4-yl)carbonyl]azetidin-3-yl}-4-(1,3-thiazol-2-ylcarbonyl)piperazine]",1192
15,"O=C(c1ccc(-c2ccc(C(F)(F)F)cc2)cc1)N1CC(N2CCN(C(=O)c3nccs3)CC2)C1 [Cpd 150, 1-(1,3-Thiazol-2-ylcarbonyl)-4-(1-{[4′-(trifluoromethyl)biphenyl-4-yl]carbonyl}azetidin-3-yl)piperazine]",1104
16,"O=C(c1ccc(OCc2ccc(Cl)c(Cl)c2)c(F)c1)N1CC(N2CCN(C(=O)c3nccs3)CC2)C1 [Cpd 400, 1-[1-({4-[(3,4-Dichlorobenzyl)oxy]-3 fluorophenyl}carbonyl)azetidin-3-yl]-4-(1,3-thiazol-2-ylcarbonyl)piperazine]",1076
17,"O=C(c1nccs1)N1CCN(C2CN(C(=O)c3sc4cc(C(F)(F)F)ccc4c3Cl)C2)CC1 [Cpd 324, 1-(1-{[3-Chloro-6-(trifluoromethyl)-1-benzothiophen-2-yl]carbonyl}azetidin-3-yl)-4-(1,3-thiazol-2-ylcarbonyl)piperazine]",1265
18,"N#Cc1cccc(-c2ccc(C(=O)N3CC(N4CCN(C(=O)c5nccs5)CC4)C3)cc2)c1 [Cpd 161, 4′-({3-[4-(1,3-Thiazol-2-ylcarbonyl)piperazin-1-yl]azetidin-1-yl}carbonyl)biphenyl-3-carbonitrile]",1280
